Results from PubChem BioAssay AID2060499 (Molecular Pharmacology Branch, DTP, NCI, 2025).

System: 777334-354-R2-J4-PDC tumor spheroids with HUVEC/MSC, viability
Assay: Anticancer human tumor 777334-354-R2-J4-PDC patient-derived pancreatic adenocarcinoma cell line growth inhibition [GQUAD]
Settings: for IC50: curve of first compound; for viability, T/C: stronger effect = lower value
In short: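 Multi-cell-type spheroids of tumor cells with HUVEC and mesenchymal stem cells, treated with drug combinations. Concentrations descend in half-log steps from near clinical Cmax, or from 10 microM where Cmax is unknown; viability read-out.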

[1] = second compound 0.0316 µM, first compound 0.0316 µM
[2] = second compound 0.0316 µM, first compound 0.1 µM
[3] = second compound 0.0316 µM, first compound 0.316 µM
[4] = second compound 0.0316 µM, first compound 1 µM
[5] = second compound 0.0316 µM, first compound 3.16 µM
[6] = second compound 0.0316 µM, first compound 10 µM
[7] = second compound 0.1 µM, first compound 0.0316 µM
[8] = second compound 0.1 µM, first compound 0.1 µM
[9] = second compound 0.1 µM, first compound 0.316 µM
[10] = second compound 0.1 µM, first compound 1 µM
[11] = second compound 0.1 µM, first compound 3.16 µM
[12] = second compound 0.1 µM, first compound 10 µM
[13] = second compound 0.316 µM, first compound 0.0316 µM
[14] = second compound 0.316 µM, first compound 0.1 µM
[15] = second compound 0.316 µM, first compound 0.316 µM
[16] = second compound 0.316 µM, first compound 1 µM
[17] = second compound 0.316 µM, first compound 3.16 µM
[18] = second compound 0.316 µM, first compound 10 µM
[19] = second compound 1 µM, first compound 0.0316 µM
[20] = second compound 1 µM, first compound 0.1 µM
[21] = second compound 1 µM, first compound 0.316 µM
[22] = second compound 1 µM, first compound 1 µM
[23] = second compound 1 µM, first compound 3.16 µM
[24] = second compound 1 µM, first compound 10 µM
[25] = second compound 3.16 µM, first compound 0.0316 µM
[26] = second compound 3.16 µM, first compound 0.1 µM
[27] = second compound 3.16 µM, first compound 0.316 µM
[28] = second compound 3.16 µM, first compound 1 µM
[29] = second compound 3.16 µM, first compound 3.16 µM
[30] = second compound 3.16 µM, first compound 10 µM
[31] = second compound 10 µM, first compound 0.0316 µM
[32] = second compound 10 µM, first compound 0.1 µM
[33] = second compound 10 µM, first compound 0.316 µM
[34] = second compound 10 µM, first compound 1 µM
[35] = second compound 10 µM, first compound 3.16 µM
[36] = second compound 10 µM, first compound 10 µM
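Further: spheroids exposed to compounds for 7 days before readout.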

SMILES: C#Cc1c(F)ccc2cc(O)cc(-c3ncc4c(N5CC6CCC(C5)N6)nc(OCC56CCCN5CC(F)C6)nc4c3F)c12 (stereo not drawn) + Cc1[nH]c2ccc(F)cc2c1-c1nc2c3cccnc3c3ncccc3c2[nH]1
- IC50 (second compound 0.0316 µM): 81.4 nM
- IC50 (second compound 0.1 µM): 47.8 nM
- IC50 (second compound 0.316 µM): < 31.6 nM
- IC50 (second compound 1 µM): < 31.6 nM
- IC50 (second compound 3.16 µM): < 31.6 nM
- IC50 (second compound 10 µM): < 31.6 nM
- viability, T/C [1]: 54.6%
- viability, T/C [2]: 52.6%
- viability, T/C [3]: 37.2%
- viability, T/C [4]: 34.6%
- viability, T/C [5]: 25.9%
- viability, T/C [6]: 20%
- viability, T/C [7]: 56.3%
- viability, T/C [8]: 37.2%
- viability, T/C [9]: 32.2%
- viability, T/C [10]: 38.1%
- viability, T/C [11]: 26.3%
- viability, T/C [12]: 20.8%
- viability, T/C [13]: 51.2%
- viability, T/C [14]: 38.6%
- viability, T/C [15]: 34.9%
- viability, T/C [16]: 39.1%
- viability, T/C [17]: 21%
- viability, T/C [18]: 24.6%
- viability, T/C [19]: 48%
- viability, T/C [20]: 33.9%
- viability, T/C [21]: 27.6%
- viability, T/C [22]: 26.1%
- viability, T/C [23]: 21.9%
- viability, T/C [24]: 18.1%
- viability, T/C [25]: 26%
- viability, T/C [26]: 10.1%
- viability, T/C [27]: 9.09%
- viability, T/C [28]: 7.85%
- viability, T/C [29]: 10.6%
- viability, T/C [30]: 8.93%
- viability, T/C [31]: 16.9%
- viability, T/C [32]: 9.99%
- viability, T/C [33]: 10.5%
- viability, T/C [34]: 10.1%
- viability, T/C [35]: 8.96%
- viability, T/C [36]: 8.05%

SMILES: CC(=O)O[C@H]1C(=O)[C@@]2(C)[C@H]([C@H](OC(=O)c3ccccc3)[C@]3(O)C[C@H](OC(=O)[C@H](O)[C@@H](NC(=O)c4ccccc4)c4ccccc4)C(C)=C1C3(C)C)[C@]1(OC(C)=O)CO[C@@H]1C[C@@H]2O + Cc1[nH]c2ccc(F)cc2c1-c1nc2c3cccnc3c3ncccc3c2[nH]1
- IC50 (second compound 0.0316 µM): 291 nM
- IC50 (second compound 0.1 µM): 305 nM
- IC50 (second compound 0.316 µM): 222 nM
- IC50 (second compound 1 µM): 240 nM
- IC50 (second compound 3.16 µM): < 31.6 nM
- IC50 (second compound 10 µM): < 31.6 nM
- viability, T/C [1]: 97.1%
- viability, T/C [2]: 66%
- viability, T/C [3]: 49.7%
- viability, T/C [4]: 41.1%
- viability, T/C [5]: 51.8%
- viability, T/C [6]: 43.3%
- viability, T/C [7]: 94.9%
- viability, T/C [8]: 59.9%
- viability, T/C [9]: 48.4%
- viability, T/C [10]: 46.4%
- viability, T/C [11]: 49.6%
- viability, T/C [12]: 47.6%
- viability, T/C [13]: 81.4%
- viability, T/C [14]: 59.5%
- viability, T/C [15]: 45.6%
- viability, T/C [16]: 45.2%
- viability, T/C [17]: 47.5%
- viability, T/C [18]: 44.1%
- viability, T/C [19]: 70.9%
- viability, T/C [20]: 58.5%
- viability, T/C [21]: 44.2%
- viability, T/C [22]: 45.3%
- viability, T/C [23]: 44.6%
- viability, T/C [24]: 38.1%
- viability, T/C [25]: 35.9%
- viability, T/C [26]: 28%
- viability, T/C [27]: 22.2%
- viability, T/C [28]: 17.4%
- viability, T/C [29]: 17.8%
- viability, T/C [30]: 15%
- viability, T/C [31]: 30.7%
- viability, T/C [32]: 23%
- viability, T/C [33]: 19.6%
- viability, T/C [34]: 14%
- viability, T/C [35]: 15.3%
- viability, T/C [36]: 15.7%

SMILES: Cc1[nH]c2ccccc2c1CCNCc1ccc(/C=C/C(=O)NO)cc1 + Cc1[nH]c2ccc(F)cc2c1-c1nc2c3cccnc3c3ncccc3c2[nH]1
- IC50 (second compound 0.0316 µM): 189 nM
- IC50 (second compound 0.1 µM): 215 nM
- IC50 (second compound 0.316 µM): 207 nM
- IC50 (second compound 1 µM): 176 nM
- IC50 (second compound 3.16 µM): < 0.999 nM
- IC50 (second compound 10 µM): < 0.999 nM
- viability, T/C (second compound 0.0316 µM, first compound 0.000999 µM): 114%
- viability, T/C (second compound 0.0316 µM, first compound 0.00316 µM): 91.3%
- viability, T/C (second compound 0.0316 µM, first compound 0.00999 µM): 103%
- viability, T/C [1]: 78.2%
- viability, T/C (second compound 0.0316 µM, first compound 0.0999 µM): 74.5%
- viability, T/C [3]: 33.8%
- viability, T/C (second compound 0.1 µM, first compound 0.000999 µM): 103%
- viability, T/C (second compound 0.1 µM, first compound 0.00316 µM): 94%
- viability, T/C (second compound 0.1 µM, first compound 0.00999 µM): 102%
- viability, T/C [7]: 90.6%
- viability, T/C (second compound 0.1 µM, first compound 0.0999 µM): 73.1%
- viability, T/C [9]: 38.5%
- viability, T/C (second compound 0.316 µM, first compound 0.000999 µM): 90.2%
- viability, T/C (second compound 0.316 µM, first compound 0.00316 µM): 92.2%
- viability, T/C (second compound 0.316 µM, first compound 0.00999 µM): 109%
- viability, T/C [13]: 92.7%
- viability, T/C (second compound 0.316 µM, first compound 0.0999 µM): 79%
- viability, T/C [15]: 33.1%
- viability, T/C (second compound 1 µM, first compound 0.000999 µM): 97.9%
- viability, T/C (second compound 1 µM, first compound 0.00316 µM): 80.3%
- viability, T/C (second compound 1 µM, first compound 0.00999 µM): 78.4%
- viability, T/C [19]: 91.2%
- viability, T/C (second compound 1 µM, first compound 0.0999 µM): 70.4%
- viability, T/C [21]: 29.2%
- viability, T/C (second compound 3.16 µM, first compound 0.000999 µM): 46%
- viability, T/C (second compound 3.16 µM, first compound 0.00316 µM): 37.7%
- viability, T/C (second compound 3.16 µM, first compound 0.00999 µM): 41%
- viability, T/C [25]: 49.3%
- viability, T/C (second compound 3.16 µM, first compound 0.0999 µM): 52.5%
- viability, T/C [27]: 38.7%
- viability, T/C (second compound 10 µM, first compound 0.000999 µM): 46.3%
- viability, T/C (second compound 10 µM, first compound 0.00316 µM): 24.8%
- viability, T/C (second compound 10 µM, first compound 0.00999 µM): 38.9%
- viability, T/C [31]: 35%
- viability, T/C (second compound 10 µM, first compound 0.0999 µM): 41.6%
- viability, T/C [33]: 32.1%

SMILES: O=c1[nH]cc(F)c(=O)[nH]1 + Cc1[nH]c2ccc(F)cc2c1-c1nc2c3cccnc3c3ncccc3c2[nH]1
- IC50 (second compound 0.0316 µM): > 10000 nM
- IC50 (second compound 0.1 µM): > 10000 nM
- IC50 (second compound 0.316 µM): > 10000 nM
- IC50 (second compound 1 µM): > 10000 nM
- IC50 (second compound 3.16 µM): < 31.6 nM
- IC50 (second compound 10 µM): < 31.6 nM
- viability, T/C [1]: 95.5%
- viability, T/C [2]: 93.3%
- viability, T/C [3]: 105%
- viability, T/C [4]: 82.5%
- viability, T/C [5]: 71.3%
- viability, T/C [6]: 61.5%
- viability, T/C [7]: 113%
- viability, T/C [8]: 100%
- viability, T/C [9]: 103%
- viability, T/C [10]: 72%
- viability, T/C [11]: 80.8%
- viability, T/C [12]: 61.7%
- viability, T/C [13]: 89.1%
- viability, T/C [14]: 103%
- viability, T/C [15]: 86.1%
- viability, T/C [16]: 76.8%
- viability, T/C [17]: 79.4%
- viability, T/C [18]: 67.5%
- viability, T/C [19]: 74.7%
- viability, T/C [20]: 89.5%
- viability, T/C [21]: 72.9%
- viability, T/C [22]: 61.1%
- viability, T/C [23]: 68.7%
- viability, T/C [24]: 53.3%
- viability, T/C [25]: 44.6%
- viability, T/C [26]: 38.4%
- viability, T/C [27]: 31.2%
- viability, T/C [28]: 28.8%
- viability, T/C [29]: 27.7%
- viability, T/C [30]: 25%
- viability, T/C [31]: 29.6%
- viability, T/C [32]: 29.1%
- viability, T/C [33]: 24.5%
- viability, T/C [34]: 17.4%
- viability, T/C [35]: 16.4%
- viability, T/C [36]: 18.5%
